Experimental data published in patent publication US4714699A, “2-tolylmorpholine derivatives and pharmaceutical compositions” (Societe Anonyme Dite: Laboratoire L. Lafon, priority 1983, dated 1987).
“Also recorded” adds a separate entry of the source.

How the values were obtained:
traction test = format: in vivo, male mice; conditions: i.p., mice
Procedure: (§1) In the following tests, CRL 40 875, in solution in distilled water, was administered intraperitoneally in a volume of 20 ml/kg to male mice and 5 ml/kg to male rats.
(§2) The test is performed on groups of 10 mice half an hour after the administration of CRL 40 875.
(§3) In the following tests, CRL 40 897, in solution in distilled water (pH 4), was administered intraperitoneally in a volume of 20 ml/kg to male mice and in a volume of 5 ml/kg to male rats, the procedures being those given above for CRL 40 875.

[1] = interaction with apomorphine in mice; format: in vivo, male mice
Procedure: as §1
Groups of 6 mice receive CRL 40 875 0.5 hour before the subcutaneous injection of 1 or 16 mg/kg of apomorphine.
as §3
(§4) In the tests undertaken, CRL 40 912, in solution in distilled water (pH 4.5), was administered intraperitoneally in a volume of 20 ml/kg to male mice and in a volume of 5 ml/kg to male rats, the procedures being those given above for CRL 40 875.

[2] = pretoxicity (LD-O, maximum non-lethal dose); format: in vivo, male mice
Procedure: as §1, §3, §4
(§5) The toxicological and neuropsychopharmacological studies undertaken in accordance with the procedures described above for CRL 40 875 enabled the following observations to be made: […]

[3] = overall behavior and reactivities in mice; format: in vivo, male mice
Procedure: as §1
Groups of three mice are observed before and then 15 minutes, 30 minutes, 1 hour, 2 hours, 3 hours and 24 hours after the administration of CRL 40 875.
as §3, §5

[4] = clinical trials, treatment of depressions; format: in vivo; conditions: man
From the text: In clinical trials, good results were obtained on man with CRL 40 875 (Example 1), CRL 40 912 (Example 2) and CRL 40 897 (Example 3) in the treatment of depressions.

[5] = asphyxiant anoxia (gallamine triiodoethylate); format: in vivo, male mice; conditions: i.p., mice
Procedure: as §1
Groups of 20 mice receive CRL 40 875 half an hour before the intraperitoneal administration of 32 mg/kg of gallamine triidoethylate (which is a reference curarizing agent).
as §3, §4

[6] = motility reduced by hypoxic aggression; format: in vivo, male mice; conditions: i.p.
Procedure: as §1
Half an hour after they have received CRL 40 875, the mice (10 per dose, 20 control animals) are subjected to acute hypobaric anoxia [pressure reduction of 600 mm Hg (i.e. about 8×10^4 pascals) in 90 seconds; release of vacuum in 45 seconds] and are then placed in an actimeter, where their motility is recorded for 10 minutes.
as §3

[7] = interaction with reserpine; format: in vivo, male mice; conditions: i.p.
Procedure: as §1
Four hours after the intraperitoneal injection of 2.5 mg/kg of reserpine, groups of 6 mice receive CRL 40 875. The effects on the temperature and ptosis are observed.
as §3, §4

[8] = neuropsychopharmacological study, overall findings; format: in vivo, mice, rats; conditions: for variation of sedative effects with dose: in vivo; for antidepressant effects: strong doses; for sedative effects: weak doses where stated
Procedure: as §1, §3, §4, §5

[9] = interaction with oxotremorine; format: in vivo, male mice
Procedure: as §1
CRL 40 875 is administered to groups of 6 mice half an hour before the intraperitoneal injection of 0.5 mg/kg of oxotremorine.
as §3, §4

[10] = interaction with apomorphine in rats; format: in vivo, male rats; conditions: i.p., 0.5 mg/kg apomorphine
Procedure: as §1
CRL 40 875 is administered to groups of 6 rats 0.5 hour before the subcutaneous injection of 0.5 mg/kg of apomorphine.
as §3, §4

[11] = motility reduced by habituation to the enclosure; format: in vivo, male mice; conditions: i.p.
Procedure: as §1
After they have stayed in the actimeters for 18 hours, the mice (6 per dose, 12 control animals) receive CRL 40 875. They are immediately returned to their respective enclosures and, half an hour later, their motility is recorded for 30 minutes.
as §3, §4

α-adrenergic = α-adrenergic stimulation; conditions: in vivo
[12] = interaction with amphetamine; format: in vivo, male rats; conditions: i.p.; 2 mg/kg amphetamine; rats
Procedure: as §1, §3, §4

electric shock = format: in vivo, male mice; conditions: i.p., mice
Procedure: as §1, §2, §3

[13] = action on the intergroup aggressiveness; format: in vivo, male mice; conditions: i.p., mice
Procedure: as §1
After they have stayed for 3 weeks in the two halves of a cage divided by an opaque partition, groups of 3 mice receive CRL 40 875. Half an hour later, the two groups from the same cage are brought together by removal of the partition, and the number of fights which occur in 10 minutes is noted.
as §3, §4

four plate test = format: in vivo, male mice; conditions: i.p., mice
Procedure: as §1, §2, §3

[14] = action on the spontaneous motility; format: in vivo, male mice; conditions: mice
Procedure: as §1
Half an hour after they have received CRL 40 875, the mice (6 per dose, 12 control animals) are placed in an actimeter, where their motility is recorded for 30 minutes.
as §3

[15] = cardiovascular study in dogs; format: in vivo
[16] = cardiovascular study in rats; format: in vivo; conditions: wake rats
[17] = high dose (64 mg/kg) i.p., mice
[18] = anesthetized dogs, intraduodenal (CRL 40 903: then intravenous)
[19] = intraduodenal, anesthetized dogs

## Cc1ccc(C2CN(C)CCO2)cc1.Cl (stereo not drawn) [CRL 40 897, 2-p-tolyl-4-methylmorpholine hydrochloride]
Traction test
  major motor incapacity: does not cause major motor incapacity
[1]; Mus musculus, ip, mice, read-out: dose as from which hypothermic effect is present
  minimal effective dose: ≥ 4 mg/kg
[1]; [17]
  effect on the temperature drop induced by apomorphine: partially counteracts the temperature drop induced by apomorphine
[1]; i.p., apomorphine, mice
  effect on righting behavior and stereotypies: without modifying the righting behavior and the stereotypies
[2]; 64 mg/kg i.p., mice
  signs of toxicity: dyspnea, sedation
  trembling, animals affected: 1/3
[2]; 128 mg/kg i.p., groups of three mice
  mortality: no mortality
[2]; 128 mg/kg i.p., groups of three mice, hydrochloride
  signs of toxicity: dyspnea, trembling; also recorded: sedation
[2]; 128 mg/kg i.p., mice
  convulsions, animals affected: 2/3
[2]; 256 mg/kg i.p., mice
  convulsions, animals affected: 2/3
  copious salivation, animals affected: 1 out of 3
  death, animals affected: 3/3
  signs of toxicity: dyspnea
  time to death: 10 min
[3]; 4 mg/kg i.p., mice
  duration of hypothermia: 0.5 h
  hypothermia (temperature change): -2.2 °C
[3]; 16 mg/kg i.p., mice
  duration of hypothermia: 0.5 h
  hypothermia (temperature change): -2.4 °C
[3]; 64 mg/kg i.p., mice
  depressed respiration, animals affected: 2/3
  duration of depressed respiration: 3 h
  duration of sedation: 3 h
  duration of significant salivation: 1 h
  hypothermia (temperature change): -2.2 °C
  sedation, animals affected: 3 out of 3
  significant salivation, animals affected: 3/3
[4]
  results in the treatment of depressions: good results
[5]
  time taken for convulsions and death to occur following asphyxiant anoxia: delays the time taken for convulsions and death to occur
[6]
  motor recovery in mice after reduced-pressure enclosure: does not cause any improvement in the motor recovery
[7]; mice
  effect on the hypothermia and ptosis induced by reserpine: does not modify the hypothermia and ptosis induced by reserpine
[8]
  variation of sedative effects with dose: increase continuously with the dose administered, up to a maximum value, and then decrease continuously and progressively as the dose increases
  antidepressant effects: antidepressants at strong doses
  sedative effects: sedative effects (hypomotility, hypothermia, reduction of intergroup aggressiveness
[9]; Mus musculus, ip, mice, read-out: dose as from which hypothermic effect is distinct
  minimal effective dose: ≥ 4 mg/kg
[9]; [17]
  effect on the temperature drop induced by oxotremorine: partially counteracts the temperature drop induced by oxotremorine
[9]; i.p., mice
  effect on signs of peripheral cholinergic stimulation induced by oxotremorine: leaves unchanged the signs of peripheral cholinergic stimulation induced by oxotremorine
  effect on the trembling due to oxotremorine: not influenced
[10]
  effect on stereotypies induced by apomorphine: does not modify the stereotypies induced by apomorphine
[11]
  resumption in the activity of mice accustomed to their enclosure: does not cause a resumption in the activity of mice accustomed to their enclosure
α-adrenergic
  α-adrenergic stimulant effect: stimulant effects, especially of the α-adrenergic type
[12]
  effect on stereotypies induced by amphetamine: The increase observed in the other groups merely reflect this anomaly
Electric shock
  effect on electric shock: does not modify the convulsant and lethal effects of electric shock
[13]
  effect on aggressiveness / number of fights: does not cause a distinct reduction in the number of fights
Four plate test
  number of punished passes: does not cause an increase in the number of punished passes
[14]; Mus musculus, ip, read-out: dose as from which motility is reduced
  minimal effective dose: ≥ 4 mg/kg
[14]; as from 4 mg/kg i.p.
  effect on spontaneous motor activity: depresses the spontaneous motor activity of mice

## Cc1ccccc1C1CN(C(C)(C)C)CCO1 (stereo not drawn) [CRL 40 910, 2-o-tolyl-4-tert.-butylmorpholine]
[2]; intraperitoneally, male mice
  LD-O (maximum non-lethal dose): greater than 128 mg/kg
[3]; 64 mg/kg i.p., male mice
  hypothermia: moderate hypothermia
[3]; 64 mg/kg i.p., mice
  duration of hypothermia: 0.5 h
[8]
  sedative effects: sedative effects
[15]; 0.5 mg/kg intraduodenally, anesthetized dogs
  femoral and vertebral flow rates: significantly increases the femoral and vertebral flow rates
[15]; anesthetized dogs, intraduodenal
  effect of propanolol on the increase in femoral flow rate: not totally inhibited by propanolol
[15]; [18]
  dose as from which tachycardia appears: 1 mg/kg
  effect on the hypertension induced by noradrenaline: reduces the hypertension induced by noradrenaline
  effect on the hypotension / effects of isoprenaline: does not modify the effects of isoprenaline
[15]; dog, in vivo
  vasodilator property: particularly interesting as vasodilators
[15]; [19]
  effect on respiration: stimulates respiration in dogs
  rectal and skin temperatures: increase progressively
  tachycardia, degree: remains weak
  venous pressure: increase progressively, as does the venous pressure
[15]; propanolol 1 mg/kg intravenously, anesthetized dogs
  effect of propanolol on the effects on heart beat and vertebral flow rate: antagonized by propanolol

## Cc1cccc(C2CN(C)CCO2)c1.Cl (stereo not drawn) [CRL 40 912, 2-m-tolyl-4-methylmorpholine hydrochloride]
[1]; strong dose, i.p.
  effect on the hypothermic effects of apomorphine: opposes the hypothermic effects of apomorphine
[4]
  results in the treatment of depressions: good results
[5]
  time taken for convulsions and death to occur following asphyxiant anoxia: delay in the time taken for convulsions and death to occur
[7]; mice
  effect on the ptosis induced by reserpine: significant antagonism of the ptosis induced by reserpine
[7]; weaker dose
  effect on the hypothermic effects of reserpine: opposes those of reserpine
[8]
  variation of sedative effects with dose: increase continuously with the dose administered, up to a maximum value, and then decrease continuously and progressively as the dose increases
[8]; hydrochloride
  antidepressant effects: antidepressant at a strong dose; also recorded: antidepressants at strong doses
  sedative effects: sedative effects (hypomotility, hypothermia) comparable to those of α-adrenergic blocking substances or to clonidine; also recorded: acts as a sedative at a weak dose; also recorded: sedative effects (hypomotility, hypothermia, reduction of intergroup aggressiveness
[9]; strong dose, i.p.
  effect on the temperature drop caused by oxotremorine: opposes the hypothermic effects of apomorphine and oxotremorine
[11]
  resumption in the activity of mice accustomed to their enclosure: does not cause a resumption in the motor activity of mice accustomed to their enclosure
α-adrenergic; hydrochloride
  α-adrenergic stimulant effect: effect of the α-stimulant type; also recorded: very distinct peripheral α-adrenergic stimulant action (piloerection, exophthalmos, significant antagonism of the ptosis induced by reserpine); also recorded: stimulant effects, especially of the α-adrenergic type
[16]
  bradycardia: bradycardia is of short duration
  mean blood pressure: no action on the mean blood pressure
[12]
  effect on stereotypies induced by amphetamine: does not reduce the intensity of the stereotypies induced by amphetamine
[15]; 1 mg/kg i.p., anesthetized dogs
  effect on blood pressure: hypertensive agent
[15]; 5 mg/kg i.p., anesthetized dogs
  effect on hypertensive action: this effect decreases
[15]; i.p., anesthetized dogs
  dose as from which bradycardia is caused: ≥ 5 mg/kg
[13]
  effect on aggressiveness / number of fights: reduction of aggressiveness
